{"source": "patent US8362074B2", "about": "“Synergistic insecticidal compositions” (priority 1999, dated 2013)", "key": {"[1]": {"system": "adult male German cockroaches (Blattella germanica)", "assay": "Treated dog chow bait test on adult male German cockroaches", "format": "in vivo", "details": "1.00 % active ingredient", "description": "In this evaluation, adult male German cockroaches (Blattella germanica) are used. For each test, a 4.0 g portion of ground Purina Dog Chow (Hi-Pro Glo®) is treated with an acetone solution of test compound alone or in combination with a second test compound. After treatment, the acetone is evaporated and the treated dog chow is placed in a ¾ oz plastic cup which is placed in a harborage made of folded sheets of blotter paper placed in a plastic box (16″ L×11″ W×6″ H). The plastic box (test arena) is also fitted with a 1 oz narrow mouth bottle with 2 dental wicks inserted at the mouth. A control box is prepared in the same manner using ground dog chow which has been treated with reagent grade acetone. Each treatment is replicated three times. Into each test arena are placed 20 healthy adult male cockroaches which have been reared in an insectary. The test arenas are then stored at 76° F. and mortality is determined daily by visual examination."}, "[2]": {"system": "Helicoverpa zea (cotton bollworm) larvae", "assay": "Treated artificial diet surface test on cotton bollworm larvae", "format": "in vivo", "description": "In this evaluation, Helicoverpa zea (cotton bollworm) larvae are obtained from a laboratory colony. Test compounds are dissolved in 1:1 v/v acetone/water. Plastic bioassay trays (C-D International, Pitman, N.J.) are used as test arenas. Each tray contains 32 open-faced wells, 4.0×4.0×2.5 cm. A portion (5 ml) of a wheat germ-soybean flour-based artificial diet (Southland Products, Lake Village, Ark.) is poured into each well. After the diet hardened, 0.4 ml of test solution is pipetted onto the diet surface in each well. Test solutions are evenly spread over surfaces of diet by picking up the tray and gently tilting it from side to side. Trays are then held in a vented area for about 2 h, until water is no longer pooled on diet surfaces. A single 4-day-old H. zea larva is then placed on the surface of diet in each well. After larval infestation, each well is covered with an adhesive, vented, clear plastic sheet.\nAll test arenas are held under constant fluorescent light and a temperature of about 27° C. for duration of the assay. Larval mortality is determined at 2, 3, 4 and 7 days after treatment. […] A total of 32 insects were tested for each treatment."}}}
{"smiles": "CC1(C)CNC(=NN=C(/C=C/c2ccc(C(F)(F)F)cc2)/C=C/c2ccc(C(F)(F)F)cc2)NC1", "note": "[Compound B, hydramethylnon]", "values": [{"measurement": "mortality at 1 % strength", "setting": "[1]; 72 h, 3 days after treatment", "result": 0, "unit": "%"}, {"measurement": "mortality at 1 % strength", "setting": "[1]; 96 h, 4 days after treatment", "result": 5, "unit": "%"}, {"measurement": "mortality at 1 % strength", "setting": "[1]; 120 h, 5 days after treatment", "result": 28.3, "unit": "%"}, {"measurement": "mortality at 1 % strength", "setting": "[1]; 144 h, 6 days after treatment", "result": 71.7, "unit": "%"}, {"measurement": "mortality at 1 % strength", "setting": "[1]; 168 h, 7 days after treatment", "result": 90, "unit": "%"}, {"measurement": "mortality at 1 % strength", "setting": "[1]; 192 h, 8 days after treatment", "result": 93.3, "unit": "%"}, {"measurement": "% Mortality", "setting": "[2]; 100 OB/ml, 2 days after treatment", "result": 3.1, "unit": "%"}, {"measurement": "% Mortality", "setting": "[2]; 100 OB/ml, 3 days after treatment", "result": 3.1, "unit": "%"}, {"measurement": "% Mortality", "setting": "[2]; 100 OB/ml, 4 days after treatment", "result": 3.1, "unit": "%"}, {"measurement": "% Mortality", "setting": "[2]; 100 OB/ml, 7 days after treatment", "result": 15.6, "unit": "%"}, {"measurement": "% Mortality", "setting": "[2]; 500 OB/ml, 2 days after treatment", "result": 0.0, "unit": "%"}, {"measurement": "% Mortality", "setting": "[2]; 500 OB/ml, 3 days after treatment", "result": 9.4, "unit": "%"}, {"measurement": "% Mortality", "setting": "[2]; 500 OB/ml, 4 days after treatment", "result": 18.8, "unit": "%"}, {"measurement": "% Mortality", "setting": "[2]; 500 OB/ml, 7 days after treatment", "result": 40.6, "unit": "%"}, {"measurement": "% Mortality", "setting": "[2]; 1000 OB/ml, 2 days after treatment", "result": 3.1, "unit": "%"}, {"measurement": "% Mortality", "setting": "[2]; 1000 OB/ml, 3 days after treatment", "result": 34.4, "unit": "%"}, {"measurement": "% Mortality", "setting": "[2]; 1000 OB/ml, 4 days after treatment", "result": 50.5, "unit": "%"}, {"measurement": "% Mortality", "setting": "[2]; 1000 OB/ml, 7 days after treatment", "result": 62.5, "unit": "%"}]}
